Data on 25 molecules can be found in patent publication US20210223233A1, “Mitochondrial Conductance Inhibitors and Methods of Use Thereof” (The Regents of the University of California, priority 2018, published 2021).

Where two headings read alike, the source gives them in different places.

Series [1] relates to inner mitochondrial membrane nonselective monovalent cation conductance (NMCC). The format is biochemical, mouse. The procedure: The homogenate was centrifuged at 700 g for 5-10 min to pellet nuclei and unbroken cells. For some tissues, the first nuclear pellet was resuspended in the same solution and homogenized again to increase the yield of mitochondria. Mitochondria were collected by centrifugation of the supernatant at 8,500 g for 10 min. Mitochondria were suspended in a solution containing 140 mM sucrose, 440 mM D-mannitol, 5 mM HEPES, and 1 mM EGTA (pH adjusted to 7.2 with KOH), and then subjected to a French press at 2,000 psi to rupture the outer mitochondrial membrane (OMNI) and release the inner mitochondrial membrane (IMM) to form mitoplasts. Mitoplasts were pelleted at 10,500 g for 15 min and resuspended for storage in […] of solution containing 750 mM KCl, 100 mM HEPES and 1 mM EGTA (pH adjusted to 7.2 with KOH) to further release the IMM from the OMNI, see FIG. 1A. […] Mitochondria and mitoplasts were prepared at 0-4° C. and stored on ice for up to 5 h. Tissues were isolated from a mitochondrial calcium uniporter (MCU) knock-out mouse unless otherwise indicated.
A glass pipette recording electrode was used to form a gigaohm seal with the IMM in a bath solution containing 150 mM KCl, 10 mM HEPES, and 1 mM EGTA, pH 7.2 (adjusted with KOH). Capacitive transients were completely compensated right after the seal was formed. The patch of the IMM attached to the glass pipette recording electrode was then ruptured by high-amplitude voltage pulses (200-500 mV).
Currents were recorded using an Axopatch 200B amplifier (Molecular Devices). The current was dropped to −160 mV and then ramped up for 850 mS to +80 mV. All voltages indicated correspond to the mitochondrial matrix in respect to the bath (cytosol). Mitoplast conductance was normalized to the membrane capacitance (Cm) in all tissues examined. Current amplitudes for histograms were measured within 5 mS after stepping the membrane from 0 to −160 mV and were normalized to the total current. Whole-mitoplast control currents were recorded in a bath solution containing 150 mM HEPES, 1.5 mM EGTA, pH 7.0 adjusted with Tris base, osmolarity to 300 mmol/kg with sucrose.
For the assay, the pipette solution contained 110 mM Na-gluconate, 5 mM EGTA, 40 mM HEPES, 5 mM EDTA, and 1 mM NaCl and was tonicity adjusted to ˜350-370 mmol/kg with sucrose and pH adjusted to pH 7 with 1 M NaOH. The control bath solution contained 110 mM Na-gluconate, and 40 mM HEPES and was pH adjusted to pH 7 with 1 M NaOH. When assaying for the effect Ca^2+, 5 mM CaCl2) was added to the described bath solution.
For the DCCD assay, mitoplasts were prepared from wild-type C56BL/6 mice. The pipette solution contained 150 mM tetramethylammonium (TMA) hydroxide, 1.5 mM EGTA, 2 mM MgCl2, and 150 mM HEPES, was tonicity adjusted to ˜450 mmol/kg with sucrose and pH adjusted to pH 7 with D Gluconic Acid, and the bath solution contained 150 mM KCl, 1.5 mM EGTA, and 40 mM HEPES, and was pH adjusted to pH 7.2 with 1 M KOH. When assaying for DCCD effect, 10 μM DCCD was added to the described bath solution. […],
When assaying for inhibitor effect, […] or 5 μM CATR was added to the described bath solution.
For the Na^+ assays, the pipette solution contained 110 mM Na-gluconate, 5 mM EGTA, 40 mM HEPES, 5 mM EDTA, and 1 mM NaCl and was tonicity adjusted to ˜350-370 mmol/kg with sucrose and pH adjusted to pH 7 with 1 M NaOH. The bath solution contained 110 mM Na-gluconate, 5 mM EGTA, 40 mM HEPES, and 5 mM EDTA and was pH adjusted to pH 7 with 1 M NaOH.

For series [2] the following is noted: log octanol/water partition coefficient; source not stated; cited from earlier work.
The mark [3] stands for this setting: 10 μM antimycin in bath, 125 mM K-gluconate, pH 7.

`N/C(=N\C(=O)c1nc(Cl)c(NCc2ccc(I)cc2)nc1N)NCCCCc1ccccc1` [5m, (E)-3-amino-N-(amino((4-phenylbutyl)amino)methylene)-6-chloro-5-((4-iodobenzyl)amino)pyrazine-2-carboxamide]: the “effect on monovalent cation conductance” value in series [1] (1 μM 5m in bath, 125 mM K-gluconate, pH 7) is recorded as “almost completely inhibited”.

As for `CCCCCCCCN/C(N)=N/C(=O)c1nc(Cl)c(NCc2ccc(I)cc2)nc1N` [5o, (E)-3-amino-N-(amino(octylamino)methylene)-6-chloro-5-((4-iodobenzyl)amino)pyrazine-2-carboxamide], the “effect on monovalent cation conductance” value in series [1] (1 μM 5o in bath, 125 mM K-gluconate, pH 7) is recorded as “almost completely inhibited”. `CN(CCCCCCc1ccccc1)CCCCNC(=O)c1nc(Cl)c(NCc2ccc(Cl)cc2)nc1N` [AA6, 3-amino-6-chloro-5-((4-chlorobenzyl)amino)-N-(4-(methyl(6-phenylhexyl)amino)butyl)pyrazine-2-carboxamide]: the “effect on monovalent cation conductance” value in series [1] (200 nM AA6 in bath, 125 mM K-gluconate, pH 7) is given as “almost completely inhibited”. Turning to `CCCCC/C=C\C/C=C\C/C=C\C/C=C\CCCC(=O)O` [AA, arachidonic acid], the “effect on monovalent cation conductance” value in series [1] ([…] AA in bath, 125 mM K-gluconate, pH 7) is reported as “little to no effect”. As to `C=C1[C@@H]2CC[C@H]3[C@]4(C)C[C@H](O[C@@H]5O[C@H](CO)[C@@H](OS(=O)(=O)O)[C@H](OS(=O)(=O)O)[C@H]5OC(=O)CC(C)C)CC(C(=O)O)(C(=O)O)[C@H]4CC[C@]3(C2)[C@H]1O` [CATR, carboxyatractyloside], the “effect on monovalent cation conductance” value in series [1] (5 μM CATR in bath, 125 mM K-gluconate, pH 7) is listed as “little to no effect”.

As for `[Ca+2].[Cl-].[Cl-]` [Ca^2+, CaCl2], the “effect on monovalent cation conductance” value in series [1] (5 mM CaCl2 added to bath, 110 mM Na-gluconate, no chelator in bath, pH 7) was “inhibited”.

As for `C(=NC1CCCCC1)=NC1CCCCC1` [DCCD, dicyclohexylcarbodiimide], in series [1] (10 μM DCCD in bath, 150 mM KCl bath, TMA pipette, mitoplasts from wild-type C56BL/6 mice), the “effect on monovalent cation conductance” value is reported as “little to no effect”. Molecule `CCN(c1nc(N)c(C(=O)NC(=N)N)nc1Cl)C(C)C` [EIPA, 5-(N-ethyl-N-isopropyl)amiloride] displayed a Concentration in series [1] of 80 µM. The “effect on monovalent cation conductance” value was “significantly and almost completely inhibited” in series [1] (K+ assay (110 mM K-gluconate, pH 7), 80 μM EIPA in bath); “significantly and almost completely inhibited” in series [1] (Na+ assay (110 mM Na-gluconate, pH 7), 100 μM EIPA in bath). For the molecule `C[n+]1ccc(-c2ccccc2)cc1` [MPP+, 1-methyl-4-phenylpyridinium], the “effect on monovalent cation conductance” value in series [1] (0.5 mM MPP+ in bath, 125 mM K-gluconate, pH 7) is reported as “little to no effect”. As to `CN(C)C(=N)NC(=N)N` [Metformin], the Concentration in series [1] was determined as 30000 µM. For the same molecule, the “effect on monovalent cation conductance” value in series [1] (pH 7) is reported as “almost completely inhibited”.

In the case of `[H]/N=C(/N)N/C(=N/[H])NCCc1ccccc1` [Phenformin], the Concentration in series [1] is 2000 µM. The “effect on monovalent cation conductance” value in series [1] (1 mM phenformin in bath, 125 mM K-gluconate, pH 7) is on record as “almost completely inhibited”. Besides, in series [2], the logP is −0.83. Turning to `[H]/N=C(\N/C(=N/[H])Nc1ccc(Cl)cc1)NC(C)C` [Proguanil], in series [1], the Concentration was 100 µM. Further, the “effect on monovalent cation conductance” value in series [1] (100 μM proguanil in bath, 125 mM K-gluconate, pH 7) is given as “almost completely inhibited”. For the same molecule, in series [2], the logP is listed as 2.53. With `C=C(C)[C@H]1Cc2c(ccc3c2O[C@@H]2COc4cc(OC)c(OC)cc4[C@@H]2C3=O)O1` [Rotenone, rotenone], in series [1] (10 μM rotenone in bath, 110 mM Na-gluconate, pH 7), the “effect on monovalent cation conductance” value was “little to no effect”. Turning to `N/C(=N\C(=O)c1nc(Cl)c(N)nc1N)NCc1ccccc1` [benzamil], in series [1] (10 μM benzamil in bath, 125 mM K-gluconate, pH 8), the “effect on monovalent cation conductance” value is “little to no effect”. On to `CC(C)(C)c1ccc(CCOc2ncnc3ccccc23)cc1` [fenazaquin], for which the “effect on monovalent cation conductance” value in series [1] (10 μM fenazaquin in bath, 110 mM Na-gluconate, pH 7) is given as “little to no effect”. For `Cc1nn(C)c(Oc2ccccc2)c1/C=N/OCc1ccc(C(=O)OC(C)(C)C)cc1` [fenipiroximate], in series [1] (0.5 μM fenipiroximate in bath, 125 mM K-gluconate, pH 7), the “effect on monovalent cation conductance” value was “little to no effect”. In the case of `CO/C(=C/C(N)=O)[C@H](C)[C@H](/C=C/c1csc(-c2csc([C@@H](C)/C=C/C=C/C(C)C)n2)n1)OC` [myxothiazol], the “effect on monovalent cation conductance” value in series [1] (10 μM myxothiazol in bath, 125 mM K-gluconate, pH 7) is “little to no effect”.

For `CC[C@H]1/C=C/C=C/C[C@@H](C)[C@H](O)[C@@](C)(O)C(=O)[C@@H](C)[C@H](O)[C@@H](C)C(=O)[C@@H](C)[C@H](O)[C@@H](C)/C=C/C(=O)O[C@@H]2[C@H](C)[C@H](CC1)O[C@]1(CC[C@H](C)[C@H](C[C@@H](C)O)O1)[C@H]2C` [oligomycin], in series [1] (10 oligomycin (unit not given) in bath, 125 mM K-gluconate, pH 7), the “effect on monovalent cation conductance” value was “little to no effect”. On to `C/C=C(\C)[C@H](O)[C@H](C)/C=C(C)/C=C/C/C(C)=C/Cc1nc(OC)c(OC)c(O)c1C` [piericidin], for which, in series [1] (1 μM piericidin in bath, 110 mM K-gluconate, pH 7), the “effect on monovalent cation conductance” value is reported as “little to no effect”.

Regarding `CCCCCCCCCCC(O)C1CCC(C2CCC(C(O)CCCCCCCCCCC(O)CC3=CC(C)OC3=O)O2)O1` (stereo not drawn) [rolliniastatin], in series [1] (2 μM rolliniastatin in bath, 125 mM K-gluconate, pH 7), the “effect on monovalent cation conductance” value is “little to no effect”. With `C/C=C(C)/C=C/C=C/[C@H](OC)[C@@H](C)[C@@H](OC)[C@@H](C)CCc1oc2c(O)c(OC)cc(OC)c2c(=O)c1C` [stigmatellin], in series [1] (0.5 μM stigmatellin in bath, 125 mM K-gluconate, pH 7), the “effect on monovalent cation conductance” value was “little to no effect”. Regarding Tertiapin Q [TQ], the “effect on monovalent cation conductance” value in series [1] (0.5 μM TQ in bath, 125 mM K-gluconate, pH 7) is reported as “little to no effect”. For the molecule antimycin, in series [1] (setting [3]), the “effect on monovalent cation conductance” value was “little to no effect” and the “uncoupling H+ current overlapping with the K+ current” value is listed as “elicited an uncoupling H^+ current”. As to atpenin, the “effect on monovalent cation conductance” value in series [1] (0.2 μM or 1 μM atpenin in bath, 125 mM K-gluconate, pH 7) is “little to no effect”. Turning to bullatacin, in series [1] (1 μM bullatacin in bath, 125 mM K-gluconate, pH 7), the “effect on monovalent cation conductance” value is “little to no effect”.

The logP is a log measure of how a compound divides between an organic and an aqueous phase.
